Converted amounts (≈) assume the structure as drawn.
Key:
JST63 = assay: MIC on environmental MDR isolate (microdilution)
EfMetAP1a = EfMetAP1a (Enterococcus faecalis, UniProt Q832M5); assay: MetAP enzyme inhibition, Morrison Ki (Met-AMC fluorescence); assay type: biochemical; conditions: Morrison Ki method
E. faecalis = assay: Minimum inhibitory concentration (broth dilution); assay type: cell-based; conditions: Enterococcus faecalis, alone
HK1 = assay: MIC on environmental MDR isolate (microdilution)
HK32 = assay: MIC on environmental MDR isolate (microdilution); conditions: Enterobacter cloacae

Chain of EfMetAP1a (Q832M5 entry or part of it): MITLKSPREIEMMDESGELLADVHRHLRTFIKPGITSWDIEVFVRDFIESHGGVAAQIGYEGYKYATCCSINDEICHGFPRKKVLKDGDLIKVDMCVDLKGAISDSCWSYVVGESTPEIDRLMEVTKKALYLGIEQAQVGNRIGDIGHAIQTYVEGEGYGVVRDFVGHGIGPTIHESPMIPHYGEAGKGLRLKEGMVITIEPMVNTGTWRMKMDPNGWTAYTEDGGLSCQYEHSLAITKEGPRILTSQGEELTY

Compound O=C1Nc2ccc(F)cc2/C1=N\NC(=O)c1cc(-c2cccc(Br)c2)n[nH]1 [PS9, (E)-3-(3-Bromophenyl)-N′-(5-Fluoro-2-Oxoindolin-3-Ylidene)-1H-Pyrazole-5-Carbohydrazide] has an MIC (JST63) of 1000 µg/mL (≈ 2340 µM), a Ki (EfMetAP1a) of 6.93 ± 0.45 µM and an MIC (E. faecalis) of 8 µg/mL (≈ 18.7 µM). The MIC (HK1) was 16 µg/mL (≈ 37.4 µM), the “MIC lower than standard antibiotic AMP” value (HK1; isolate HK1) was 16 times and the “MIC lower than third-generation drug CTX” value (HK1; isolate HK1) was 8 times. For the same compound, the MIC (HK32) was 64 µg/mL (≈ 149 µM).

— publication PMC9405123, “Design, Synthesis and Mechanistic Studies of Novel Isatin-Pyrazole Hydrazone Conjugates as Selective and Potent Bacterial MetAP Inhibitors” (Antibiotics, 2022)
